# Test results taken from ChEMBL document CHEMBL1833965, “A new N-methyl thymine derivative comprising a dihydroxyisobutenyl unit as ligand for thymidine kinase of herpes simplex virus type 1 (HSV-1 TK)” (Bioorg Med Chem Lett, 2011).
# Active and inactive are the calls of the source. No cut-off for these calls is given here.
# Key:
# HeLa = test: Antiproliferative activity against human HeLa cells after 72 hrs by MTT assay; assay type: functional, cell-based
# MCF7 = test: Antiproliferative activity against human MCF7 cells after 72 hrs by MTT assay; assay type: functional, cell-based; details: MCF7, 72 h
# HepG2 = test: Antiproliferative activity against human HepG2 cells after 72 hrs by MTT assay; assay type: functional, cell-based; details: HepG2, 72 h
# SW-620 = test: Antiproliferative activity against human SW620 cells after 72 hrs by MTT assay; assay type: functional, cell-based; details: SW-620, 72 h
# MIA PaCa-2 = test: Antiproliferative activity against human MIAPaCa2 cells after 72 hrs by MTT assay; assay type: functional, cell-based; details: MIA PaCa-2, 72 h
# WI-38 = test: Antiproliferative activity against human WI38 cells after 72 hrs by MTT assay; assay type: cell-based; details: WI-38, 72 h
# [1] = molecular target: T1, Thymidine kinase (Human alphaherpesvirus 1) (UniProt Q9QNF7); test: Activity of HSV-1 GST-TK assessed as formation of compound-monophosphate by HPLC analysis
# T1 sequence (whole entry): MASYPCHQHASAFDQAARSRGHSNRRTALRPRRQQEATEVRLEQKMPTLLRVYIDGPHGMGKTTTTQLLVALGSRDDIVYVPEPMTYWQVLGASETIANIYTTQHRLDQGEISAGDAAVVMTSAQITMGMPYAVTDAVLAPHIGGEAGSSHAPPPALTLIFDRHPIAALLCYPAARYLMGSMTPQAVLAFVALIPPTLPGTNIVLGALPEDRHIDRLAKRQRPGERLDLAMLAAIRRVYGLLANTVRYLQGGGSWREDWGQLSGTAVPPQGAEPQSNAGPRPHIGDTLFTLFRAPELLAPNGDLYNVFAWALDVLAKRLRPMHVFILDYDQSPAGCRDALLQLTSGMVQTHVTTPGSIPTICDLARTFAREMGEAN
# [2] = molecular target: T1, Thymidine kinase (Human alphaherpesvirus 1); test: Activity of HSV-1 GST-TK assessed as formation of ADP by HPLC analysis
# [3] = molecular target: T2, Thymidine kinase, cytosolic (Homo sapiens) (UniProt P04183); test: Activity of human 6xHis-tagged TK assessed as formation of compound-monophosphate by HPLC analysis
# T2 sequence (whole entry): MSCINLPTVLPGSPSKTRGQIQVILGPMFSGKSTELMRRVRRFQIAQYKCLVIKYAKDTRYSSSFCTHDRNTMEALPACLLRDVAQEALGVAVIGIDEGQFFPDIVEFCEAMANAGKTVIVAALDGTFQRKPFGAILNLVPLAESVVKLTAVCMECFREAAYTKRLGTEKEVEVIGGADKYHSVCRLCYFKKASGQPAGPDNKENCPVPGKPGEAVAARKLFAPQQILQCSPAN
# [4] = molecular target: T2, Thymidine kinase, cytosolic (Homo sapiens); test: Activity of human 6xHis-tagged TK assessed as formation of ADP by HPLC analysis
# [5] = molecular target: T1, Thymidine kinase (Human alphaherpesvirus 1); test: Activity of HSV-1 GST-TK assessed as increase in ADP to ATP ratio at 1 mM after 30 mins
# [6] = molecular target: T2, Thymidine kinase, cytosolic (Homo sapiens); test: Activity of human 6xHis-tagged TK assessed as effect on ADP to ATP ratio at 1 mM after 30 mins
compound,measurement,setting,value
COc1nc(=O)n(C)c(CC(O)(COCc2ccccc2)COCc2ccccc2)c1C,IC50,HeLa,29.5 µM
same,IC50,MCF7,23.7 µM
same,IC50,HepG2,33.9 µM
same,IC50,SW-620,57.2 µM
same,IC50,MIA PaCa-2,33.5 µM
same,IC50,WI-38,49.8 µM
Cc1c(C=C(CO)CO)n(C)c(=O)[nH]c1=O,Activity,[1],Active
same,Activity,[2],Active
same,Activity,[3],inactive
same,Activity,[4],inactive
same,Activity,[5],Active
same,Activity,[6],inactive
same,IC50,HeLa,> 100 µM
same,IC50,MCF7,> 100 µM
same,IC50,HepG2,> 100 µM
same,IC50,SW-620,> 100 µM
same,IC50,MIA PaCa-2,> 100 µM
same,IC50,WI-38,> 100 µM
COc1nc(CC(O)(CO)CO)c(C)c(OC)n1,IC50,HeLa,> 100 µM
same,IC50,MCF7,> 100 µM
same,IC50,HepG2,> 100 µM
same,IC50,SW-620,> 100 µM
same,IC50,MIA PaCa-2,> 100 µM
same,IC50,WI-38,> 100 µM
COc1nc(=O)n(C)c(CC(O)(COC(C)=O)COC(C)=O)c1C,IC50,HeLa,> 100 µM
same,IC50,MCF7,> 100 µM
same,IC50,HepG2,> 100 µM
same,IC50,SW-620,> 100 µM
same,IC50,MIA PaCa-2,> 100 µM
same,IC50,WI-38,> 100 µM
COc1nc(CC(O)(COCc2ccccc2)COCc2ccccc2)c(C)c(OC)n1,IC50,HeLa,3.67 µM
same,IC50,MCF7,4.22 µM
same,IC50,HepG2,2.42 µM
same,IC50,SW-620,3.48 µM
same,IC50,MIA PaCa-2,6.08 µM
same,IC50,WI-38,3.84 µM
CC(=O)OCC(O)(COC(C)=O)Cc1c(C)c(=O)[nH]c(=O)n1C,IC50,HeLa,> 100 µM
same,IC50,MCF7,> 100 µM
same,IC50,HepG2,> 100 µM
same,IC50,SW-620,> 100 µM
same,IC50,MIA PaCa-2,> 100 µM
same,IC50,WI-38,> 100 µM
CC(=O)OCC(=Cc1c(C)c(=O)[nH]c(=O)n1C)COC(C)=O,IC50,HeLa,> 100 µM
same,IC50,MCF7,> 100 µM
same,IC50,HepG2,> 100 µM
same,IC50,SW-620,> 100 µM
same,IC50,MIA PaCa-2,> 100 µM
same,IC50,WI-38,> 100 µM
CC(=O)OCC(F)(COC(C)=O)Cc1c(C)c(=O)[nH]c(=O)n1C,IC50,HeLa,> 100 µM
same,IC50,MCF7,> 100 µM
same,IC50,HepG2,> 100 µM
same,IC50,SW-620,> 100 µM
same,IC50,MIA PaCa-2,> 100 µM
same,IC50,WI-38,> 100 µM
COc1nc(CC(F)(COC(C)=O)COC(C)=O)c(C)c(OC)n1,IC50,HeLa,> 100 µM
same,IC50,MCF7,> 100 µM
same,IC50,HepG2,> 100 µM
same,IC50,SW-620,> 100 µM
same,IC50,MIA PaCa-2,> 100 µM
same,IC50,WI-38,> 100 µM
COc1nc(=O)n(C)c(CC(O)(CO)CO)c1C,IC50,HeLa,> 100 µM
same,IC50,MCF7,> 100 µM
same,IC50,HepG2,> 100 µM
same,IC50,SW-620,> 100 µM
same,IC50,MIA PaCa-2,> 100 µM
same,IC50,WI-38,> 100 µM
COc1nc(=O)n(C)c(CC(F)(COC(C)=O)COC(C)=O)c1C,IC50,HeLa,> 100 µM
same,IC50,MCF7,> 100 µM
same,IC50,HepG2,> 100 µM
same,IC50,SW-620,> 100 µM
same,IC50,MIA PaCa-2,> 100 µM
same,IC50,WI-38,> 100 µM
COc1nc(CC(O)(COC(C)=O)COC(C)=O)c(C)c(OC)n1,IC50,HeLa,> 100 µM
same,IC50,MCF7,> 100 µM
same,IC50,HepG2,> 100 µM
same,IC50,SW-620,> 100 µM
same,IC50,MIA PaCa-2,> 100 µM
same,IC50,WI-38,> 100 µM
Cc1c(CC(O)(CO)CO)n(C)c(=O)[nH]c1=O,IC50,HeLa,> 100 µM
same,IC50,MCF7,> 100 µM
same,IC50,HepG2,> 100 µM
same,IC50,SW-620,> 100 µM
same,IC50,MIA PaCa-2,> 100 µM
same,IC50,WI-38,> 100 µM
